Measured values reported in patent EP0771196B1, “EXCITATORY AMINO ACID RECEPTOR ANTAGONISTS” (ELI LILLY AND COMPANY, priority 1994, dated 1996).

The compounds below were run on metabotropic glutamate receptors (assay: Displacement of 1S,3R-ACPD-sensitive [3H]glutamate binding to rat brain cell membranes). Conditions: crude membranes of rat forebrain; 10 µM compound.
Protocol: The binding of [^3H]glutamate was conducted with crude membranes of rat forebrain as described by Schoepp and True. Schoepp and True, Neuroscience Lett., 145, 100-104 (1992) and True and Schoepp, Society for Neuroscience Abstracts, 19, 470 (1993). IC50 values for the inhibition of [^3H]glutamate binding, or the percent displacement of [^3H]glutamate binding at a 10 µM concentration, of the formula I compound, is shown in Table II.

Compound	ACPD-Sensitive [^3H]Glutamate Binding % Displacement at 10 µM
CC(C)C(N)(C(=O)O)[C@H]1C[C@@H]1C(=O)O (mixture of isomers) [Example 14, 2SR- and 2RS-2-amino-2-(1SR,2SR-2-carboxycyclopropan-1-yl)-3-methylbutanoic acid]	(17%)

Same assay, conditions: crude membranes of rat forebrain; inhibition of [3H]glutamate binding

Compound	IC50 [nM]
2R-2- amino-2-(1R,2R-2-carboxycyclopropan-1-yl)-3-(dibenzopyran-4-yl)propanoic acid [Example 74]	4200
CCCCCCCCC(N)(C(=O)O)[C@H]1C[C@@H]1C(=O)O (mixture of isomers) [Example 13, 2SR- and 2RS-2-amino-2-(1SR,2SR-2-carboxycyclopropan-1-yl)decanoic acid]	1700
CC(C)CC(N)(C(=O)O)[C@H]1C[C@@H]1C(=O)O (mixture of isomers) [Example 15, 2SR- and 2RS-2-amino-2-(1SR,2SR-2-carboxycyclopropan-1-yl)-4-methylpentanoic acid]	700
CC(C)CCC(N)(C(=O)O)[C@H]1C[C@@H]1C(=O)O (mixture of isomers) [Example 16, 2SR- and 2RS-2-amino-2-(1SR,2SR-2-carboxycyclopropan-1-yl)-5-methylhexanoic acid]	1100
CC(C)CCCC(N)(C(=O)O)[C@H]1C[C@@H]1C(=O)O (mixture of isomers) [Example 17, 2SR- and 2RS-2-amino-2-(1SR, 2SR-2-carboxycyclopropan-1-yl)-6-methylheptanoic acid]	850
NC(CCc1cccc2ccccc12)(C(=O)O)[C@H]1C[C@@H]1C(=O)O (mixture of isomers) [Example 18, 2SR- and 2RS-2-amino-2-(1SR,2SR-2-carboxycyclopropan-1-yl)-4-(naphth-1-yl)butanoic acid]	140
NC(CCc1ccc2ccccc2c1)(C(=O)O)[C@H]1C[C@@H]1C(=O)O (mixture of isomers) [Example 19, 2SR- and 2RS-2-amino-2-(1SR,2SR-2-carboxycyclopropan-1-yl)-4-(naphth-2-yl)butanoic acid]	2800
Cc1ccccc1CCC(N)(C(=O)O)[C@H]1C[C@@H]1C(=O)O (mixture of isomers) [Example 20, 2SR- and 2RS-2-amino-2-(1SR,2SR-2-carboxycyclopropan-1-yl)-4-(2-methylphenyl)butanoic acid]	570
Cc1cccc(CCC(N)(C(=O)O)[C@H]2C[C@@H]2C(=O)O)c1 (mixture of isomers) [Example 21, 2SR- and 2RS-2-amino-2-(1SR,2SR-2-carboxycyclopropan-1-yl)-4-(3-methylphenyl)butanoic acid]	38
Cc1ccc(CCC(N)(C(=O)O)[C@H]2C[C@@H]2C(=O)O)cc1 (mixture of isomers) [Example 22, 2SR- and 2RS-2-amino-2-(1SR,2SR-2-carboxycyclopropan-1-yl)-4-(4-methylphenyl)butanoic acid]	590
NC(CCc1ccccc1Cl)(C(=O)O)[C@H]1C[C@@H]1C(=O)O (mixture of isomers) [Example 23, 2SR- and 2RS-2-amino-2-(1SR,2SR-2-carboxycyclopropan-1-yl)-4-(2-chlorophenyl)butanoic acid]	260
NC(CCc1cccc(Cl)c1)(C(=O)O)[C@H]1C[C@@H]1C(=O)O (mixture of isomers) [Example 24, 2SR- and 2RS-2-amino-2-(1SR,2SR-2-carboxycyclopropan-1-yl)-4-(3-chlorophenyl)butanoic acid]	110
NC(CCc1ccc(-c2ccccc2)cc1)(C(=O)O)[C@H]1C[C@@H]1C(=O)O (mixture of isomers) [Example 49, 2SR- and 2RS-2-amino-2-(1SR,2SR-2-carboxycyclopropan-1-yl)-4-(4-biphenyl)butanoic acid]	1500
NC(CCc1c(F)c(F)c(F)c(F)c1F)(C(=O)O)[C@H]1C[C@@H]1C(=O)O (mixture of isomers) [Example 50, 2SR- and 2RS-2-amino-2-(1SR,2SR-2-carboxycyclopropan-1-yl)-4-(2,3,4,5,6-pentafluorophenyl)butanoic acid]	370
COc1cccc(CCC(N)(C(=O)O)[C@H]2C[C@@H]2C(=O)O)c1OC (mixture of isomers) [Example 52, 2SR- and 2RS-2-amino-2-(1SR,2SR-2-carboxycyclopropan-1-yl)-4-(2,3-dimethoxyphenyl)butanoic acid]	4900
COc1cc(CCC(N)(C(=O)O)[C@H]2C[C@@H]2C(=O)O)cc(OC)c1 (mixture of isomers) [Example 53, 2SR- and 2RS-2-amino-2-(1SR,2SR-2-carboxycyclopropan-1-yl)-4-(3,5-dimethoxyphenyl)butanoic acid]	95
NC(CCc1ccc(F)cc1)(C(=O)O)[C@H]1C[C@@H]1C(=O)O (mixture of isomers) [Example 54, 2SR- and 2RS-2-amino-2-(1SR,2SR-2-carboxycyclopropan-1-yl)-4-(4-fluorophenyl)butanoic acid]	23

Compound	IC50 [nM]
NC(CCc1ccccc1F)(C(=O)O)[C@H]1C[C@@H]1C(=O)O (mixture of isomers) [Example 55, 2SR- and 2RS-2-amino-2-(1SR,2SR-2-carboxycyclopropan-1-yl)-4-(2-fluorophenyl)butanoic acid]	120
NC(CCc1ccc(C(F)(F)F)cc1)(C(=O)O)[C@H]1C[C@@H]1C(=O)O (mixture of isomers) [Example 56, 2SR- and 2RS-2-amino-2-(1SR,2SR-2-carboxycyclopropan-1-yl)-4-(4-(trifluoromethyl)phenyl)butanoic acid]	610
NC(CCc1ccccc1C(F)(F)F)(C(=O)O)[C@H]1C[C@@H]1C(=O)O (mixture of isomers) [Example 57, 2SR- and 2RS-2-amino-2-(1SR,2SR-2-carboxycyclopropan-1-yl)-4-(2-(trifluoromethyl)phenyl)butanoic acid]	480
NC(CCc1cccs1)(C(=O)O)[C@H]1C[C@@H]1C(=O)O (mixture of isomers) [Example 58, 2SR- and 2RS-2-amino-2-(1SR,2SR-2-carboxycyclopropan-1-yl)-4-(2-thienyl)butanoic acid]	580
NC(CCc1ccsc1)(C(=O)O)[C@H]1C[C@@H]1C(=O)O (mixture of isomers) [Example 59, 2SR- and 2RS-2-amino-2-(1SR,2SR-2-carboxycyclopropan-1-yl)-4-(3-thienyl)butanoic acid]	210
NC(CCc1cccc(Oc2ccccc2)c1)(C(=O)O)[C@H]1C[C@@H]1C(=O)O (mixture of isomers) [Example 60, 2SR- and 2RS-2-amino-2-(1SR,2SR-2-carboxycyclopropan-1-yl)-4-(3-phenoxyphenyl)butanoic acid]	170
Cn1cc(CCC(N)(C(=O)O)[C@H]2C[C@@H]2C(=O)O)c2ccccc21 (mixture of isomers) [Example 61, 2SR- and 2RS-2-amino-2-(1SR,2SR-2-carboxycyclopropan-1-yl)-4-(1-methylindol-3-yl)butanoic acid]	280
NC(CC1CCCCC1)(C(=O)O)[C@H]1C[C@@H]1C(=O)O (mixture of isomers) [Example 62, 2SR- and 2RS-2-amino-2-(1SR,2SR-2-carboxycyclopropan-1-yl)-3-cyclohexylpropanoic acid]	230
NC(CCc1cc(Cl)cc(Cl)c1)(C(=O)O)[C@H]1C[C@@H]1C(=O)O (mixture of isomers) [Example 75, 2SR- and 2RS-2-amino-2-(1SR,2SR-2carboxycyclopropan-1-yl)-4-(3,5-dichlorophenyl)butanoic acid]	25
NC(CCc1cccc(-c2ccccc2)c1)(C(=O)O)[C@H]1C[C@@H]1C(=O)O (mixture of isomers) [Example 76, 2SR- and 2RS-2-amino-2-(1SR,2SR-2-carboxycyclopropan-1-yl)-4-(3-biphenyl)butanoic acid]	510
NC(CCc1ccc(F)cc1F)(C(=O)O)[C@H]1C[C@@H]1C(=O)O (mixture of isomers) [Example 77, 2SR- and 2RS-2-amino-2-(1SR,2SR-2-carboxycyclopropan-1-yl)-4-(2,4-difluorophenyl)butanoic acid]	60
NC(CCc1ccc(F)c(F)c1)(C(=O)O)[C@H]1C[C@@H]1C(=O)O (mixture of isomers) [Example 78, 2SR- and 2RS-2-amino-2-(1SR,2SR-2-carboxycyclopropan-1-yl)-4-(3,4-difluorophenyl)butanoic acid]	37
NC(CCc1cccc(C(=O)O)c1)(C(=O)O)[C@H]1C[C@@H]1C(=O)O (mixture of isomers) [Example 79, 2SR- and 2RS-2-amino-2-(1SR,2SR-2-carboxycyclopropan-1-yl)-4-(3-carboxyphenyl)butanoic acid]	49
NC(CCc1ccc(C(=O)O)cc1)(C(=O)O)[C@H]1C[C@@H]1C(=O)O (mixture of isomers) [Example 80, 2SR- and 2RS-2-amino-2-(1SR,2SR-2-carboxycyclopropan-1-yl)-4-(4-carboxyphenyl)butanoic acid]	370
NC(CCc1ccc(Br)cc1)(C(=O)O)[C@H]1C[C@@H]1C(=O)O (mixture of isomers) [Example 82, 2SR- and 2RS-2-amino-2-(1SR,2SR-2-carboxycyclopropan-1-yl)-4-(4-bromophenyl)butanoic acid]	680
NC(CCC1C2CCCC1CCC2)(C(=O)O)[C@H]1C[C@@H]1C(=O)O (mixture of isomers) [Example 83, 2SR- and 2RS-2-amino-2-(1SR,2SR-2-carboxycyclopropan-1-yl)-4-(9-bicyclo[3.3.1]nonanyl)butanoic acid]	2600
NC(CCc1ccccc1Oc1ccccc1)(C(=O)O)[C@H]1C[C@@H]1C(=O)O (mixture of isomers) [Example 84, 2SR- and 2RS-2-amino-2-(1SR,2SR-2-carboxycyclopropan-1-yl)-4-(2-phenoxyphenyl)butanoic acid]	360
